Results on 11 compounds are retold here after paper PMC6100288 (Molecules : A Journal of Synthetic Chemistry and Natural …, 2018).

For the first experiment, the target named is T1, recombinant human PTP1B (Homo sapiens, UniProt P18031).
T1 construct: purchased Enzo Life Sciences Inc. BML-SE332-0050
T1 sequence (P18031 1-322 limits assumed): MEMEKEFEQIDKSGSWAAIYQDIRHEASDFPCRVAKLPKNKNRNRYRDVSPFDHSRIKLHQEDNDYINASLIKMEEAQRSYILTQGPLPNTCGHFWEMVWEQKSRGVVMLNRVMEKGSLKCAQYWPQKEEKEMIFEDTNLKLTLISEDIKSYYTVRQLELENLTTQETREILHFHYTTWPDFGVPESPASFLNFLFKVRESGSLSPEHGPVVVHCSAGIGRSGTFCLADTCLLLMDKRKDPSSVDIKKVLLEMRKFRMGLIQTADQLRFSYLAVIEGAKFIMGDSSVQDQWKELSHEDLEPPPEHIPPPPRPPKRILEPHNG
In words: Microplate-based PTP1B inhibition assay (pNPP substrate). In kind it is biochemical. The following applies: n = 3; IC50 ± standard error; pH 7, 25 °C, 0.5 mM pNPP. From the text:
p-Nitrophenyl phosphate (pNPP), dimethyl sulfoxide (DMSO), sodium phosphate monobasic dihydrate, sodium phosphate dibasic, sodium hydroxide, sodium azide, tris-(hydroxymethyl)-aminomethane (Tris), bis-(2-hydroxyethyl)-imino-tris-(hydroxymethylmethane) (Bis-Tris), N,N,N′,N′-ethylenediaminetetraacetate (EDTA), dithiothreitol (DTT), methanol-d4, and HPLC grade acetonitrile were purchased from Sigma-Aldrich (St. Louis, MO, USA), recombinant human PTP1B (BML-SE332-0050, EC 3.1.3.48) was purchased from Enzo Life Sciences Inc. (Farmingdale, NY, USA), and formic acid was purchased from Merck (Darmstadt, Germany). Water was purified by deionization and filtration through a 0.22 μm membrane (Millipore, Billerica, MA, USA).
PTP1B inhibition assaying of the defatted extract, fraction F1 (from preparative HPLC: see Section 3.5) and microfractions (obtained as described below in Section 3.4) were performed according to the microplate-based method previously described. In brief, all solutions were prepared in a buffer of 50 mM Tris and 50 mM Bis-Tris containing 100 mM NaCL and adjusted to pH 7. […] The microplate was incubated for 10 min at 25 °C, and the reaction was started by addition of 0.001 μg/μL PTP1B stock solution (50 μL) in phosphate buffer (to give a final concentration of 0.05 µg PTP1B per well). […] For each microplate, blank samples (negative controls) containing buffer, enzyme, EDTA, DTT, and pNPP were measured in triplicate, and for the dilution series, RK682 was included as a reference inhibitory compound (i.e., positive control). The percentage inhibition of PTP1B was calculated according to the following equation: % inhibition=(1−SLOPEsample/SLOPEblank)×100
(§1) The high-resolution PTP1B biochromatograms (high-resolution PTP1B inhibition profiles) were constructed by plotting the inhibition values against the chromatographic retention time. Dose-response curves and IC50 values for dilution series of the crude extract and pure compounds were obtained using GraFit software, version 5.0.11 (Erithacus Software Limited, West Sussex, UK). For PTP1B IC50 values, the crude extract and isolated compounds were assessed by using the standard assay conditions described above. Nine dilutions were assessed in triplicates and percentage inhibition calculated as mean ± standard deviation in Microsoft Excel according to the above equation. The results were imported and used for assessing dose-response curves and IC50 values in GraFit software, version 5.0.11 (Erithacus Software Limited). Data were fitted to the equation f(x)=min+max−min/1+(x/IC50)^slope where min is the background, max–min is the y-range, x is the concentration, and slope is the Hill slope.
Turning to `CC1(C)CC[C@]2(C(=O)O)CC[C@]3(C)C(=CC[C@@H]4[C@@]5(C)CC[C@H](O)C(C)(C)[C@@H]5[C@H](O)C[C@]43C)[C@@H]2C1` [Compound 15, Sumaresinolic acid], the IC50 (usually the concentration that inhibits the measured activity by half) was 1840 ± 300 nM.

Regarding `CC1(C)CC[C@]2(C(=O)O)CC[C@]3(C)C(=CC[C@@H]4[C@@]5(C)CC[C@@H](O)C(C)(C)[C@@H]5[C@H](O)C[C@]43C)[C@@H]2C1` [Compound 14, 3-epi-sumaresinolic acid], the IC50 was determined as 2870 ± 400 nM.

Regarding `CC1(C)CC[C@]2(C(=O)O)CC[C@]3(C)C(=CC[C@@H]4[C@@]5(C)C[C@@H](O)[C@H](O)C(C)(C)[C@@H]5CC[C@]43C)[C@@H]2C1` [Compound 13, Maslinic acid], the IC50 is 3210 ± 800 nM.

For the compound `CC1(C)CC[C@]2(C(=O)O)CC[C@]3(C)C(=CC[C@@H]4[C@@]5(C)C[C@@H](O)[C@H](OC(=O)/C=C\c6ccc(O)cc6)C(C)(C)[C@@H]5CC[C@]43C)[C@@H]2C1` [Compound 16, 3-O-cis-p-coumaroyl-maslinic acid], the IC50 came to 460 ± 70 nM.

For `CC1C(C(=O)O)CCC2(C)CCC3(C)C(=CCC4C5(C)CC(O)C(OC(=O)C=Cc6ccc(O)cc6)C(C)(C)C5CCC43C)C12` (stereo not drawn) [Compound 18, 3-O-trans-p-coumaroyl-2α-hydroxydulcioic acid], the IC50 was 1600 ± 500 nM.

As to `CC1(C)CC[C@]2(C(=O)O)CC[C@]3(C)C(=CC[C@@H]4[C@@]5(C)C[C@@H](O)[C@H](OC(=O)/C=C/c6ccc(O)cc6)C(C)(C)[C@@H]5CC[C@]43C)[C@@H]2C1` [Compound 17, 3-O-trans-p-coumaroyl-maslinic acid], the IC50 stood at 1080 ± 300 nM.

The next experiment addresses T1, recombinant human PTP1B. In words: High-resolution PTP1B inhibition profiling (biochromatogram of HPLC microfractions). The following applies: HPLC microfractions of crude ethyl acetate extract, Figure 1; result in words. In kind it is biochemical. The procedure:
PTP1B inhibition assaying of the defatted extract, fraction F1 (from preparative HPLC: see Section 3.5) and microfractions (obtained as described below in Section 3.4) were performed according to the microplate-based method previously described. In brief, all solutions were prepared in a buffer of 50 mM Tris and 50 mM Bis-Tris containing 100 mM NaCL and adjusted to pH 7. To each well containing microfractions or dilution series of pure compounds were added 18 µL of DMSO and 52 µL of 3.4 mM EDTA in Bis-Tris buffer (to give final well concentrations of 10% DMSO and 1 mM EDTA) as well as 60 µL of a Bis-Tris buffer solution containing 1.5 mM pNPP and 6 mM DTT in phosphate buffer (to give final well concentrations of 0.5 mM pNPP and 2 mM DTT). The microplate was incubated for 10 min at 25 °C, and the reaction was started by addition of 0.001 μg/μL PTP1B stock solution (50 μL) in phosphate buffer (to give a final concentration of 0.05 µg PTP1B per well). The reaction was monitored at 405 nm every 30 s for 10 min to yield the enzyme activity (expressed as cleavage rate AU/s) by using a Thermo Scientific Multiskan FC microplate photometer (Thermo Scientific, Waltham, MA, USA). For each microplate, blank samples (negative controls) containing buffer, enzyme, EDTA, DTT, and pNPP were measured in triplicate, and for the dilution series, RK682 was included as a reference inhibitory compound (i.e., positive control). The percentage inhibition of PTP1B was calculated according to the following equation: % inhibition=(1−SLOPEsample/SLOPEblank)×100
as §1, with “slope. Results are reported as IC50 values ± standard error.” for “slope.”
Microfractionation of the extract of M. albicans for high-resolution PTP1B inhibition profiling was conducted using an Agilent 1200 system (Santa Clara, CA, USA—HPLC system 1) comprising a G1311A quaternary pump, a G1322A degasser, a G1316A thermostatted column compartment, a G1315C photodiode array detector, a G1367C high-performance autosampler, and a G1364C fraction collector, controlled by Agilent ChemStation version B.03.02 software. Separations were performed by using a reversed-phase Phenomenex Luna C18(2) column (150 mm × 4.6 mm i.d., 3 μm particle size, 100 Å pore size) (Phenomenex, Torrance, CA, USA). A binary elution system of water: acetonitrile (95:5, solvent A) and acetonitrile: water (95:5, solvent B), both acidified with 0.1% formic acid, was used with a flow rate of 0.8 mL/min. […]
Turning to `C[C@@H]1O[C@@H](Oc2c(-c3ccc(O)c(O)c3)oc3cc(O)cc(O)c3c2=O)[C@H](OC(=O)c2cc(O)c(O)c(O)c2)[C@H](O)[C@H]1O` [Compound 5, quercetin 3-O-(2″-galloyl)-α-L-rhamnopyranoside], the “PTP1B inhibitory activity in high-resolution inhibition profile of crude extract” value (from here on “PTP1B inhibitory activity”) is recorded as “PTP1B inhibitors”.

For the compound `O=c1c(O[C@@H]2OC[C@H](O)[C@H](O)[C@H]2O)c(-c2ccc(O)cc2)oc2cc(O)cc(O)c12` [Compound 8, kaempferol 3-O-α-L-arabinopyranoside], the “PTP1B inhibitory activity” value was “PTP1B inhibitors”.

`C[C@@H]1O[C@@H](Oc2c(-c3cc(O)c(O)c(O)c3)oc3cc(O)cc(O)c3c2=O)[C@H](O)[C@H](O)[C@H]1O` [Compound 3, myricetin 3-O-α-L-rhamnopyranoside]: the “PTP1B inhibitory activity” value is given as “PTP1B inhibitors”.

On to `O=C(/C=C/c1ccc(O)c(O)c1)O[C@@H]1O[C@H](COC(=O)c2cc(O)c(O)c(O)c2)[C@@H](OC(=O)c2cc(O)c(O)c(O)c2)[C@H](O)[C@H]1O` [Compound 2, 1-O-(E)-caffeoyl-4,6-di-O-galloyl-β-D-glucopyranose], for which the “PTP1B inhibitory activity” value was “PTP1B inhibitors”.

With `COc1c(O)cc(-c2oc3cc(O)cc(O)c3c(=O)c2O[C@@H]2O[C@@H](C)[C@H](O)[C@@H](O)[C@H]2O)cc1O` [Compound 6, mearnsetin 3-O-α-L-rhamnopyranoside], the “PTP1B inhibitory activity” value is “PTP1B inhibitors”.

The test system of another experiment is PTP1B.
Test: not given
Details: method as in PMID 23704520. The following applies: read-out: previously reported IC50-value (PTP1B); cited from earlier work.
Regarding `CC1(C)CC[C@]2(C(=O)O)CC[C@]3(C)C(=CC[C@@H]4[C@@]5(C)C[C@@H](O)[C@H](O)C(C)(C)[C@@H]5CC[C@]43C)[C@@H]2C1` [Compound 13, Maslinic acid], the half-maximal inhibitory concentration (IC50) is 5930 nM.
